{
  "source": "patent US8414885B2",
  "about": "“Methods and compositions for treating cancer” (priority 2009, dated 2013)",
  "key": {"A2058 melanoma cultures": {"tested_on": "A2058 melanoma cultures", "assay": "EtHD-1 cell death with or without autophagy inhibitor", "type": "cell-based, human", "conditions": "A2058, ΔPK plus 3-MA, 48 h p.i.", "experimental": "(§1) FIG. 14. ΔPK induced autophagy contributes to its ability to cause melanoma cell death. (A) A2058 cells were mock or ΔPK-infected (multiplicity of infection, moi=1.0) with and without the autophagy inhibitor 3-MA and protein extracts were assayed for LC3-I and LC3-II expression by immunoblotting. Data were quantified by densitometric scanning, and results are expressed as LC3-I/LC3-II ratio±s.d. (B). A2058 melanoma cultures were mock or ΔPK-infected (moi=5), cultured in serum-free medium and stained with ethidium homodimer-1 (EtHD-1) at 48 h p.i. Cells were counted in three randomly selected fields (>250 cells) and the mean percentage of staining cells was calculated.\nTo examine the role of autophagy in ΔPK-induced melanoma cell death, the cultures were mock-infected with PBS or infected with ΔPK in the absence or presence of 3-MA and cell death was determined at 0-72 h p.i. by EtHD-1 staining. ΔPK caused a time-dependent increase in the percentage of EtHD-1+ cells that reached maximal levels at 48 h p.i. (51.1±4.8%,).\nA2058 melanoma cultures were mock or ΔPK-infected (moi=0.5), cultured in serum-free medium and stained with ethidium homodimer-1 (EtHD-1) at 48 h p.i. Cells were counted in three randomly selected fields (>250 cells) and the mean percentage of staining cells was calculated."}, "LC3-I/LC3-II": {"tested_on": "LC3-I/LC3-II", "assay": "Immunoblotting for LC3-I conversion to LC3-II (autophagy)", "type": "cell-based, human", "conditions": "A2058, 3-MA 5 mM", "experimental": "as §1\nThe role of autophagy in cell death is still controversial. The general consensus is that autophagy is a mechanism that promotes or counteracts cell death depending on the cell type, stimulus and conditions. […] To examine whether autophagy was increased in ΔPK infected cells, we focused on LC3-I conversion to LC3-II which serves as a marker for autophagosome maturation.\nA2058 cells were mock and ΔPK-infected (multiplicity of infection, moi=1.0) with and without the autophagy inhibitor 3-MA. Data were quantified by densitometric scanning, and results are expressed as the ratio of the LC3-I/LC3-II ratio±s.d."}},
  "data": [
    {"compound": "Cn1cnc(N)c2ncnc1-2", "note": "[3-MA, 3-Methyl-adenine]", "values": [
      {"measurement": "percentage of cell death (EtHD-1+) in ΔPK infected cultures in presence of inhibitor", "setting": "A2058 melanoma cultures", "value": "37.3±5.2", "unit": "%"},
      {"measurement": "effect of inhibitor on LC3-I conversion after ΔPK treatment", "setting": "LC3-I/LC3-II", "value": "reversed LC3-I conversion"}
    ]}
  ]
}
